Where two headings read alike, the source gives them in different places.
Columns and labels:
hPK-M2 [1] = target: T1, hPK-M2 (Homo sapiens, UniProt P14618); assay: Fluorescent pyruvate kinase-lactate dehydrogenase (LDH) coupled secondary assay; format: biochemical; settings: for LDH hPK, M2 Max. Res.: % activation at 57 μM of compound
Experimental: Fluorescent Pyruvate Kinase-Lactate Dehydrogenase Coupled Secondary Assay.
Plates were immediately placed in ViewLux (Perkin Elmer) and NADH fluorescence was determined at 30 second exposure intervals for between 3 and 6 minutes. Data were normalized to the uninhibited and EC100 activation using known activators such as fructose-1,6-bis-phosphate. […] Data was collected on the Perkin Elmer Viewlux.

hPK-M2 [2] = target: T1, hPK-M2; assay: Luminescent pyruvate kinase-luciferase coupled assay (KinaseGlo); format: biochemical; settings: for activation at 57 µM: read-out: hPK, M2 Max. Res.
Experimental: Luminescent Pyruvate Kinase-Luciferase Coupled Assay.
Production of a luminescent signal based on the generation of ATP by pyruvate kinase was determined by using the ATP-dependent enzyme firefly luciferase. Three μL of substrate mix (at r.t.) in assay buffer (50 mM imidazole pH 7.2, 50 mM KCl, 7 mM MgCl2, 0.01% tween 20, 0.05% BSA) was dispensed into Kalypsys white solid bottom 1,536 well microtiter plates using a bottle-valve solenoid-based dispenser (Kalypsys). The final concentrations of substrates in the assay were 0.1 mM ADP and 0.5 mM PEP. […] Microtiter plates were incubated at r.t. for 1 hour and 2 uL of luciferase detection mix (Kinase-Glo, Promega at 4° C. protected from light) was added and luminescence was read with a ViewLux (Perkin Elmer) using a 5 second exposure/plate. Data was normalized for AC50 values to control columns containing uninhibited enzyme (n), and AC100 inhibition (i) according the following equation: Activation (%)=[(c−n)/(n−i)]*100 where c=compound, n=DMSO neutral, i=no enzyme control. […] Monitoring of activation was accomplished using enzyme at 3× the final concentration.

[3] = KinaseGlo, % activation at 57 μM of compound
[4] = luciferase-coupled assay, read-out: AC50
[5] = tables, read-out: LDH hPK, M2 AC50
[6] = luminescent pyruvate kinase-luciferase coupled assay (KinaseGlo), tables, read-out: hPK, M2 AC50

T1 sequence (P14618 whole entry): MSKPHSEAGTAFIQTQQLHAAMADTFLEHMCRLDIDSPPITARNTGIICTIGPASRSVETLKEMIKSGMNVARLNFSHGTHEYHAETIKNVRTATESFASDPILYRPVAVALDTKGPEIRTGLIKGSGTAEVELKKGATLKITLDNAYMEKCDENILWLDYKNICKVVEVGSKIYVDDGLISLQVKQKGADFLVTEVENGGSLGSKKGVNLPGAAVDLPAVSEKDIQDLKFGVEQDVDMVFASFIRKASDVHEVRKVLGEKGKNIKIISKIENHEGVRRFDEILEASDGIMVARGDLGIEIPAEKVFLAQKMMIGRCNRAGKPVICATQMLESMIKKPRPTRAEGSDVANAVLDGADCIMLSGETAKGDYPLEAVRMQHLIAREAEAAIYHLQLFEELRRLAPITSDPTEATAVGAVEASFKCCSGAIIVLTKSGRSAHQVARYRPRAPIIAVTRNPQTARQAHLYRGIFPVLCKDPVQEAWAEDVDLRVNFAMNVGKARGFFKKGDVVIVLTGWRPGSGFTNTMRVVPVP

Row | Compound | activation at 57 µM (hPK-M2 [2]; [3]) | AC50 (hPK-M2 [2]; [6]) | further results
1 | COc1cc(F)c(S(=O)(=O)N2CCCN(S(=O)(=O)c3cccc(N)c3)CC2)c(F)c1 [Compound 141] |  | 206 nM | LDH hPK, M2 Max. Res. (hPK-M2 [1]): 157.96%; AC50 (hPK-M2 [1]; [5]): 146 nM; hPK, M2 Max. Res. (hPK-M2 [2]; [3]): 93.20%
2 | Cc1ccc(N[S+](=O)([O-])c2ccc3c(c2)CCC(=O)N3)cc1C [Compound 150] | 84% | 163 nM | LDH hPK, M2 Max. Res. (hPK-M2 [1]): 153.98%; AC50 (hPK-M2 [1]; [5]): 146 nM
3 | Cc1cc2c(s1)c1cnn(Cc3ccccc3)c(=O)c1n2C [Compound 103, 2,4-Methyl-6-phenylmethyl-4H-thieno[3,2-b]pyrrole[3,2-d]pyridazinone] |  | 62 ± 20 nM | 
4 | O=S(=O)(c1ccc2c(c1)OCCO2)N1CCN(S(=O)(=O)c2cccc[n+]2[O-])CC1 [Compound 19, 2-(4-(2,3-dihydrobenzo[b][1,4]dioxin-6-ylsulfonyl)piperazin-1-ylsulfonyl)pyridine 1-oxide] | 81.5 ± 3.2% |  | AC50 (hPK-M2 [2]; [4]): 254 ± 47 nM; Emax (hPK-M2 [2]; luciferase-coupled assay, relative to activation by FBP, read-out: maximum response): 104%
5 | Cc1cc2c(s1)c1cnn(Cc3ccc(F)c(F)c3F)c(=O)c1n2C [Compound 116, 2,4-Methyl-6-[(2,3,4-trifluorophenyl)methyl]-4H-thieno[3,2-b]pyrrole[3,2-d]pyridazinone] | 69.2 ± 14.6% | 174 ± 70 nM | 
6 | O=C(COP(=O)(O)O)[C@@H](O)[C@H](O)[C@H](O)COP(=O)(O)O [FBP, fructose-1,6-bis-phosphate, reference compound] |  |  | % Activation by FBP (hPK-M2 [2]; average, 100% is approximately a 2-fold increase over basal signal): 100%
7 | Nc1cc(S(=O)(=O)N2CCN(S(=O)(=O)c3ccc4c(c3)OCCO4)CC2)ccn1 [Compound 146] |  | 1600 nM | hPK, M2 Max. Res. (hPK-M2 [2]; [3]): 81.00%
8 | O=S(=O)(c1ccccc1)N1CCN(S(=O)(=O)c2ccc3c(c2)OCCO3)CC1 [Compound 15, 1-(2,3-dihydrobenzo[b][1,4]dioxin-6-ylsulfonyl)-4-(phenylsulfonyl)piperazine] | 108 ± 4.3% | 202 nM | 
9 | CCc1cc2c(s1)c1cnn(Cc3ccccc3F)c(=O)c1n2C [Compound 68, 2-Ethyl-4-methyl-6-[(2-fluorophenyl)methyl]-4H-thieno[3,2-b]pyrrole[3,2-d]pyridazinone] | 105 ± 5.8% | 100 ± 30 nM | 
10 | Cc1cc2[nH]c3c(=O)n(Cc4ccccc4F)ncc3c2s1 [Compound 89, 2-Methyl-6-[(2-fluorophenyl)methyl]-4H-thieno[3,2-b]pyrrole[3,2-d]pyridazinone] | 32.9 ± 3.8% |  | 
11 | Cc1ccc(Cn2ncc3c4sc(C)cc4n(C)c3c2=O)cc1 [Compound 109, 2,4-Methyl-6-[(4-methylphenyl)methyl]-4H-thieno[3,2-b]pyrrole[3,2-d]pyridazinone] | 84.1 ± 5.5% | 356 ± 120 nM | 
12 | CCn1c2cc(C)sc2c2cnn(Cc3ccccc3F)c(=O)c21 [Compound 90, 2-Methyl-4-ethyl-6-[(2-fluorophenyl)methyl]-4H-thieno[3,2-b]pyrrole[3,2-d]pyridazinone] |  | 5900 ± 1700 nM | hPK, M2 Max. Res. (hPK-M2 [2]; [3]): 95.6 ± 6.3%
13 | CC1(C)CCc2cc(S(=O)(=O)N3CCN(S(=O)(=O)c4c(F)cccc4F)CC3)ccc2O1 [Compound 27, 1-(2,6-difluorophenylsulfonyl)-4-(2,2-dimethylchroman-6-ylsulfonyl)piperazine] | 119 ± 5.4% | 93 nM | 
14 | N#Cc1ccc(S(=O)(=O)N2CCN(S(=O)(=O)c3ccc4c(c3)OCCO4)CC2)cc1 [Compound 4, 4-(4-(2,3-dihydrobenzo[b][1,4]dioxin-6-ylsulfonyl)piperazin-1-ylsulfonyl)benzonitrile] | 44.1 ± 6.1% | 29 nM | 
15 | Cn1c2cc([S+](C)[O-])sc2c2cnn(Cc3cccc(N)c3)c(=O)c21 (stereo not drawn) [Compound 149] |  |  | activation at 57 µM (hPK-M2 [2]): 91%
16 | Cn1c2cc(C#N)sc2c2cnn(Cc3ccccc3F)c(=O)c21 [Compound 82, 2-Cyano-4-methyl-6-[(2-fluorophenyl)methyl]-4H-thieno[3,2-b]pyrrole[3,2-d]pyridazinone] | 84.1 ± 5.5% | 47 ± 20 nM | 
17 | Cc1cc2c(s1)c1cnn(Cc3cccc(Cl)c3)c(=O)c1n2C [Compound 107, 2,4-Methyl-6-[(3-chlorophenyl)methyl]-4H-thieno[3,2-b]pyrrole[3,2-d]pyridazinone] | 99.1 ± 3.1% | 126 ± 10 nM | 
18 | Cn1c2ccsc2c2cnn(Cc3ccccc3F)c(=O)c21 [Compound 70, 4-Methyl-6-[(2-fluorophenyl)methyl]-4H-thieno[3,2-b]pyrrole[3,2-d]pyridazinone] | 93.2 ± 6.6% | 605 ± 180 nM | 
19 | Cc1cc2c(s1)c1cnn(Cc3cccc(C)c3F)c(=O)c1n2C [Compound 118, 2,4-Methyl-6-[(3-methyl-2-fluorophenyl)methyl]-4H-thieno[3,2-b]pyrrole[3,2-d]pyridazinone] | 97.4 ± 6.9% | 35 ± 10 nM | 
20 | CSc1cc2c(s1)c1cnn(Cc3ccccc3F)c(=O)c1n2C [Compound 72, 2-Methylthio-4-methyl-6-[(2-fluorophenyl)methyl]-4H-thieno[3,2-b]pyrrole[3,2-d]pyridazinone] | 96.3 ± 3.8% | 24 ± 10 nM | 
21 | Cc1cc2c(s1)c1cnn(Cc3c(F)cccc3Cl)c(=O)c1n2C [Compound 115, 2,4-Methyl-6-[(2-chloro-6-fluorophenyl)methyl]-4H-thieno[3,2-b]pyrrole[3,2-d]pyridazinone] | 92.9 ± 4.1% | 60 ± 20 nM | 
22 | COC(=O)c1cc2c(s1)c1cnn(Cc3ccccc3F)c(=O)c1n2C [Compound 83, Methyl 4-methyl-6-[(2-fluorophenyl)methyl]-4,1-thieno[3,2-b]pyrrole[3,2-d]pyridazinone-2-carboxylate] | 70.4 ± 12.9% | 84 ± 30 nM | 

Further lines, with some results ahead:

Row | activation at 57 µM (hPK-M2 [2]; [3]) | AC50 (hPK-M2 [2]; [6]) | Compound | further results
23 | 100 ± 6.6% |  | O=S(=O)(c1ccc2c(c1)OCCCO2)N1CCN(S(=O)(=O)c2c(F)cccc2F)CC1 [Compound 23, 1-(2,6-difluorophenylsulfonyl)-4-(3,4-dihydro-2,1-benzo[b][1,4]dioxepin-7-ylsulfonyl)piperazine] | AC50 (hPK-M2 [1]; read-out: AC50, LDH assay): ~500 nM; Emax (hPK-M2 [1]; read-out: maximum response, LDH assay): 109 ± 11%; AC50 (hPK-M2 [2]; [4]): 103 nM
24 | 83.7 ± 24.2% | > 10000 nM | O=S(=O)(NC1CCN(S(=O)(=O)c2ccc3c(c2)OCCO3)C1)c1c(F)cccc1F (stereo not drawn) [Compound 42, N-(1-(2,3-dihydrobenzo[b][1,4]dioxin-6-ylsulfonyl)pyrrolidin-3-yl)-2,6-difluorobenzenesulfonamide] | 
25 | 120 ± 7.3% |  | O=S(=O)(c1ccc2c(c1)OCCO2)N1CCCN(S(=O)(=O)c2c(F)cccc2F)CC1 [Compound 31, 1-(2,6-difluorophenylsulfonyl)-4-(2,3-dihydrobenzo[b][1,4]dioxin-6-ylsulfonyl)-1,4-diazepane] | AC50 (hPK-M2 [2]; [4]): 866 nM
26 | 99.6 ± 2.5% | 154 nM | O=S(=O)(c1ccc(Cl)cc1)N1CCN(S(=O)(=O)c2ccc3c(c2)OCCO3)CC1 [Compound 5, 1-(4-chlorophenylsulfonyl)-4-(2,3-dihydrobenzo[b][1,4]dioxin-6-ylsulfonyl)piperazine] | 
27 | 110 ± 3% | 4830 ± 310 nM | O=S(=O)(NCCCCCCNS(=O)(=O)c1c(F)cccc1F)c1ccc2c(c1)OCCO2 [Compound 36, N-(6-(2,6-difluorophenylsulfonamido)hexyl)-2,3-dihydrobenzo[b][1,4]dioxine-6-sulfonamide] | 
28 | 93.3 ± 9% | 4470 nM | O=S(=O)(NCC1CN(S(=O)(=O)c2c(F)cccc2F)C1)c1ccc2c(c1)OCCO2 [Compound 43] | 
29 | 108 ± 9.9% | 9180 ± 2560 nM | C[C@@H]1CN(S(=O)(=O)c2ccc3c(c2)OCCO3)CCN1S(=O)(=O)c1c(F)cccc1F [Compound 47, (R)-1-(2,6-difluorophenylsulfonyl)-4-(2,3-dihydrobenzo[b][1,4]dioxin-6-ylsulfonyl)-2-methylpiperazine] | 
30 | 105 ± 7.6% | 90 nM | O=S(=O)(c1ccc2c(c1)OCCO2)N1CCN(S(=O)(=O)c2cc(F)c(F)cc2F)CC1 [Compound 10, 1-(2,3-dihydrobenzo[b][1,4]dioxin-6-ylsulfonyl)-4-(2,4,5-trifluorophenylsulfonyl)piperazine] | 
31 |  | 92 nM | CN(C)c1cccc(S(=O)(=O)N2CCN(S(=O)(=O)c3ccc4c(c3)OCCO4)CC2)c1 [Compound 138] | hPK, M2 Max. Res. (hPK-M2 [2]; [3]): 54.00%
32 | 98.8 ± 2.6% | 3100 ± 1170 nM | C[C@@H]1CN(S(=O)(=O)c2c(F)cccc2F)CCN1S(=O)(=O)c1ccc2c(c1)OCCO2 [Compound 46, (R)-4-(2,6-difluorophenylsulfonyl)-1-(2,3-dihydrobenzo[b][1,4]dioxin-6-ylsulfonyl)-2-methylpiperazine] | 
33 | 114 ± 4% | 89 nM | O=S(=O)(c1ccc2c(c1)OCCO2)N1CCN(S(=O)(=O)c2ccccc2F)CC1 [Compound 8, 1-(2,3-dihydrobenzo[b][1,4]dioxin-6-ylsulfonyl)-4-(2-fluorophenylsulfonyl)piperazine] | 

From patent publication US8937067B2, “Activators of human pyruvate kinase” (The United States of America, as represented by the …, priority 2008, dated 2015)
